The source of these data is patent US20070087976A1, “Topiramate and pharmaceutical formulations thereof” (priority 2005, published 2007).

Each structure is given as a SMILES string.

The nature of data set [1]: storage at 80° C. for one month, color changes. It counts as physicochemical.
A short description of data set [2]: water absorption (sorption isotherm) at 25° C. and 90% r.h. It counts as physicochemical. The protocol: Thus, the pure active substance absorbs less than 0.1% of water at 25° C. at 90% r.h., as indicated by the sorption isotherm shown in FIG. 1. […] The topiramate according to the invention is therefore particularly suitable for the preparation of pharmaceutical formulations. The tablet formulations according to the invention which are obtainable by direct compression absorb less moisture than commercially available tablets. […] In contrast, topiramate tablets according to the invention, as in example 1 below, absorb only 5.5% of water under the same conditions.

With `CC1(C)O[C@@H]2[C@@H](CO[C@@]3(COS(N)(=O)=O)OC(C)(C)O[C@@H]23)O1` [topiramate, 2,3:4,5-bis-O-(1-methylethylidene)-β-D-fructopyranose sulfamate], the “color changes on storage” value in data set [1] is “no color changes”. Further, the water absorbed entry in data set [2] is recorded as “less than 0.1%”.
